Assay results as given in PMC9688225, “α-Lipoic Acid Derivatives as Allosteric Modulators for Targeting AMPA-Type Glutamate Receptors’ Gating Modules” (Cells, 2022).
Where two headings read alike, the source gives them in different places.

What was measured:
Type in all cases: cell-based
[1] = target: T1, GluA2 AMPA receptor subunit (flip isoform) (Homo sapiens, UniProt P42262); assay: Whole-cell patch-clamp electrophysiology, homomeric GluA2 expressed in HEK293 cells; details: for Amplitude (glutamate + compound): 10 mM glutamate + 12 µM compound, −60 mV, pH 7.4, 22 °C, mean ± SEM; for Amplitude (glutamate + compound) / A/AI (current with glutamate alone / current with glutamate + compound): n = 10; for A/AI (current with glutamate alone / current with glutamate + compound): 10 mM glutamate, 12 µM compound; for IC50: Hill fit; for t deact (weighted deactivation time constant) / t des (weighted desensitization time constant): glutamate + 12 µM compound; for t deact (weighted deactivation time constant): glutamate alone 2.4±0.1 ms; for t des (weighted desensitization time constant): glutamate alone 2.6±0.1 ms
T1 construct: expressed in transfected cells; host or cells: HEK293
Description: (§1) Up to 20 μg of high-copy plasmid DNA was prepared using the QIAGEN Plasmid Mini Kit, the tubes were then centrifuged to extract the supernatant containing the plasmid DNA, ethanol was used to wash the DNA pellet, then centrifuged again and the supernatant was carefully removed as to not disturb the pellet, finally, the pellet was air-dried, and the DNA was re-dissolved in a suitable volume of buffer, (our prior study detailed the whole DNA preparation data). The flip isoform was used in all AMPAR subunits used in this investigation. AMPAR subunits were subcloned in pRK and expressed in the human embryonic kidney cells (HEK293) (The HEK293 cell line was obtained from Sigma, Schnelldorf, Germany). IPA (Integrated Patch Amplifier) recorded HEK293 cells 36–48 h after transfection using the patch-clamp method (Sutter Instruments, Novato, CA, USA). A high-speed piezo solution switcher was installed on a double-barreled glass (theta tube) to provide solutions fast, isolate receptor responses from any network influences, and preserve, as much as possible, the postsynaptic protein machinery. Thus, inhibition was measured by comparing the current recorded when glutamate alone was administered to the current observed when glutamate plus the compound of interest was delivered to the same cell. Before administering the α-LA compounds, experiments were conducted to determine the appropriate concentration to be delivered to the cells without harming them. Dichloromethane (12 µM) effect on GluA1 and GluA2 subunits was tested to ensure that it had no effect on AMPA receptor currents (Figure S8). The effect of α-LA compounds on AMPA subunits plateaued at a concentration of 12 µM because LA inhibits AMPA receptors at low concentrations and continues to inhibit them when LA concentrations are increased by 2 µM each interval, as shown in Figure S1. The concentration increased by 2 µM each time to ensure that no cells were harmed. The cells were washed for 20 s between α-LA derivatives (12 µM), and 10 mM glutamate was supplied alone after each α-LA compound to ensure cell health. Data analysis was carried out using Igor Pro7 (Wave Metrics, inc). For both desensitization (τw des) and deactivation rates (τw deact), an exponential fit to the current decline was obtained at 95% of peak to baseline current. The weighted tau (τw) was calculated as τw = (τf × af) + (τs × as), where af and as are the amplitudes of the fast (τf) and slow (τs) exponential components, respectively. Our study detailed the experimental data set.
(§2) Data are presented as mean ± standard error of the mean (SEM). The number of samples (n = 10) refers to the total number of tested HEK293 cells. Statistical differences between the groups and the wild type were examined by One Way Analysis of Variance (ANOVA), with values of p < 0.05 being considered to indicate statistical significance: (*) p < 0.05, (**) p < 0.01, (***) p < 0.001, ns, not significant. Concentration-response relationships were fitted as composite curves using GraphPad Prism version 6.01 (GraphPad Software, San Diego, CA, USA) to the Hill equation. All results were representative of at least three independent experiments.
(§3) Figure 2 Suppression of AMPA receptor currents by α-LA compounds. Graphs (a,c,e,g) present AMPA receptor currents (pA) before and after the administration of α-LA derivatives on GluA1, GluA1/2, GluA2, and GluA2/3 subunits. While (b,d,f,h) present the ratio A/AI, where A represents the current caused by 10 mM glutamate alone and AI represents the current induced by glutamate + α-LA (12 µM). The whole-cell current was measured at −60 mV, pH 7.4, and 22 °C. A one way analysis of variance (ANOVA) was performed for comparison: *** p < 0.001; ns, not significant. Ten cells were investigated for each LA compound. All values are shown as mean SEM.
(§4) Figure 3 The potency of LA compounds against AMPA receptor subunits. […]

[2] = target: T2, GluA1/2 AMPA receptor subunits (flip isoform) (Homo sapiens, UniProt P42261+P42262); assay: Whole-cell patch-clamp electrophysiology, heteromeric GluA1/2 expressed in HEK293 cells; details: for Amplitude (glutamate + compound): 10 mM glutamate + 12 µM compound, −60 mV, pH 7.4, 22 °C, mean ± SEM; for Amplitude (glutamate + compound) / A/AI (current with glutamate alone / current with glutamate + compound): n = 10; for A/AI (current with glutamate alone / current with glutamate + compound): 10 mM glutamate, 12 µM compound; for IC50: Hill fit; for t deact (weighted deactivation time constant) / t des (weighted desensitization time constant): glutamate + 12 µM compound; for t deact (weighted deactivation time constant): glutamate alone 2.5±0.3 ms; for t des (weighted desensitization time constant): glutamate alone 5.3±0.4 ms
T2 construct: expressed in transfected cells; host or cells: HEK293
Description: as §1, §2, §3, §4

[3] = target: T3, GluA2/3 AMPA receptor subunits (flip isoform) (Homo sapiens, UniProt P42262+P42263); assay: Whole-cell patch-clamp electrophysiology, heteromeric GluA2/3 expressed in HEK293 cells; details: for Amplitude (glutamate + compound): 10 mM glutamate + 12 µM compound, −60 mV, pH 7.4, 22 °C, mean ± SEM; for Amplitude (glutamate + compound) / A/AI (current with glutamate alone / current with glutamate + compound): n = 10; for A/AI (current with glutamate alone / current with glutamate + compound): 10 mM glutamate, 12 µM compound; for IC50: Hill fit; for t deact (weighted deactivation time constant) / t des (weighted desensitization time constant): glutamate + 12 µM compound; for t deact (weighted deactivation time constant): glutamate alone 2.4±0.3 ms; for t des (weighted desensitization time constant): glutamate alone 2.7±0.3 ms
T3 construct: expressed in transfected cells; host or cells: HEK293
Description: as §1, §2, §3, §4

[4] = system: AMPA receptor subunits (GluA1, GluA2, GluA1/2, GluA2/3); assay: Whole-cell patch-clamp electrophysiology, summary over the AMPA receptor subunits in HEK293 cells; details: for decrease in the peak current of the AMPARs / increase of the rate of AMPA receptor deactivation (τw deact) / reduction in the rate of desensitization (τw des): all AMPA receptor subunits, 12 µM compound; for IC50: over GluA1, GluA1/2, GluA2, GluA2/3, read-out: approximate IC50 against AMPA receptor subunits
Description: as §1, §2
The levels of inhibition of α-LA and its derivatives attracted our attention to assessing the potency of the compounds in a concentration-dependent manner. […] The concentration−inhibition curves were produced by administering glutamate alone at a concentration of 10 mM, followed by glutamate + α-LA derivatives at varying concentrations (in μM) for every recording point. Afterward, the cells were normalized back by administering glutamate alone. Since the glutamate concentration in the synaptic cleft constantly saturates the receptors, driving the response to a near maximum level, variability occurs because the maximum level changes. […]

[5] = target: T4, GluA1 AMPA receptor subunit (flip isoform) (Homo sapiens, UniProt P42261); assay: Whole-cell patch-clamp electrophysiology, homomeric GluA1 expressed in HEK293 cells; details: for Amplitude (glutamate + compound): 10 mM glutamate + 12 µM compound, −60 mV, pH 7.4, 22 °C, mean ± SEM; for Amplitude (glutamate + compound) / A/AI (current with glutamate alone / current with glutamate + compound): n = 10; for A/AI (current with glutamate alone / current with glutamate + compound): 10 mM glutamate, 12 µM compound; for IC50: Hill fit; for t deact (weighted deactivation time constant) / t des (weighted desensitization time constant): glutamate + 12 µM compound; for t deact (weighted deactivation time constant): glutamate alone 2.2±0.1 ms; for t des (weighted desensitization time constant): glutamate alone 2.3±0.1 ms
T4 construct: expressed in transfected cells; host or cells: HEK293
Description: as §1, §2, §3, §4

[6] = whole-cell normalized peak amplitude, unit printed in the text, not in Table S6, read-out: IC50

T4 sequence (P42261 19-906 isoform P42261-2 limits assumed): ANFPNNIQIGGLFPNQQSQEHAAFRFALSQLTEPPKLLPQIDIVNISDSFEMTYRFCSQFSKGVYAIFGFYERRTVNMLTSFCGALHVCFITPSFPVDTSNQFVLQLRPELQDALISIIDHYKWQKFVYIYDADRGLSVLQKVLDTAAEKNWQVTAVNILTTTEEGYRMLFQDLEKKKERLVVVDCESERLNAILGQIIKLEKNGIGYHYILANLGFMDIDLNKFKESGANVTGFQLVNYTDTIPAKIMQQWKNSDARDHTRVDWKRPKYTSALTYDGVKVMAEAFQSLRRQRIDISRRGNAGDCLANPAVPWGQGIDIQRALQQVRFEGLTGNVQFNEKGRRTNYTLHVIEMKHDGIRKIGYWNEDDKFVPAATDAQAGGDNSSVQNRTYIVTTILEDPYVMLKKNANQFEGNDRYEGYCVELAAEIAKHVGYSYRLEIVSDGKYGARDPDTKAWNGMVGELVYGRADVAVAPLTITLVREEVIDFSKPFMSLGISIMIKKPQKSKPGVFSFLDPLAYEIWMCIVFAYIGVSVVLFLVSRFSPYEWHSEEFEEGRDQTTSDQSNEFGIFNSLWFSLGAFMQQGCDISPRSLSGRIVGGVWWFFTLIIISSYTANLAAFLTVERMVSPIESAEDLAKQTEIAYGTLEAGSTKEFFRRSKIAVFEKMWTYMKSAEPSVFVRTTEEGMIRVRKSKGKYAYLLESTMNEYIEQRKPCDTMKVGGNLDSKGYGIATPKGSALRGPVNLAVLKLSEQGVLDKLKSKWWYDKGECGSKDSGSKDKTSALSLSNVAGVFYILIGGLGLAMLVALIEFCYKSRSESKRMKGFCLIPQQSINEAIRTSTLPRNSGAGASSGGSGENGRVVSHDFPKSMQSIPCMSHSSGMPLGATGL
T2 sequence (P42261 19-906 isoform P42261-2 limits assumed): as above
T2 sequence (P42262 25-883 isoform P42262-2 limits assumed): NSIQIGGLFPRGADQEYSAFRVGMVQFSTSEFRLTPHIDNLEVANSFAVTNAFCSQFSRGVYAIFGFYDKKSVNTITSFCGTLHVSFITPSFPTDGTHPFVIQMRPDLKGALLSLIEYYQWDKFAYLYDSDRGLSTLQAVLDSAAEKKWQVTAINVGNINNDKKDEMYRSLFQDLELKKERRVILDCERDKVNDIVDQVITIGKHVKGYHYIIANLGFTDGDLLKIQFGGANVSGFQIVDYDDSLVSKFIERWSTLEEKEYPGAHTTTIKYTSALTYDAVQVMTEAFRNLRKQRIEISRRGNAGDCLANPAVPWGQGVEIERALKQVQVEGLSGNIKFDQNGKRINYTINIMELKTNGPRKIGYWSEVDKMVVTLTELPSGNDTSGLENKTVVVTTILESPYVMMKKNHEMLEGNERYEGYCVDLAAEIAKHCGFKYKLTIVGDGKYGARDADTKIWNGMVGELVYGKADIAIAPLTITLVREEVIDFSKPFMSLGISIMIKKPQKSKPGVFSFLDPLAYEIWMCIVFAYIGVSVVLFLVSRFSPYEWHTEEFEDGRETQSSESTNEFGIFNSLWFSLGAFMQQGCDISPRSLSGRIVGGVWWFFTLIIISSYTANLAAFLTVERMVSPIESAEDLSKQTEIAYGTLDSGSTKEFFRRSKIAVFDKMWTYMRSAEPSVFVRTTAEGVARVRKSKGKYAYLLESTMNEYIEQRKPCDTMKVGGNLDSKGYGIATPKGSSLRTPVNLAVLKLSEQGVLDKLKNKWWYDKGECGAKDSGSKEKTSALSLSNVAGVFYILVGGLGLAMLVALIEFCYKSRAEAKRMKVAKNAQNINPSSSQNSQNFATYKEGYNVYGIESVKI
T1 sequence (P42262 25-883 isoform P42262-2 limits assumed): as above
T3 sequence (P42262 25-883 isoform P42262-2 limits assumed): as above
T3 sequence (P42263 29-894 isoform P42263-2 limits assumed): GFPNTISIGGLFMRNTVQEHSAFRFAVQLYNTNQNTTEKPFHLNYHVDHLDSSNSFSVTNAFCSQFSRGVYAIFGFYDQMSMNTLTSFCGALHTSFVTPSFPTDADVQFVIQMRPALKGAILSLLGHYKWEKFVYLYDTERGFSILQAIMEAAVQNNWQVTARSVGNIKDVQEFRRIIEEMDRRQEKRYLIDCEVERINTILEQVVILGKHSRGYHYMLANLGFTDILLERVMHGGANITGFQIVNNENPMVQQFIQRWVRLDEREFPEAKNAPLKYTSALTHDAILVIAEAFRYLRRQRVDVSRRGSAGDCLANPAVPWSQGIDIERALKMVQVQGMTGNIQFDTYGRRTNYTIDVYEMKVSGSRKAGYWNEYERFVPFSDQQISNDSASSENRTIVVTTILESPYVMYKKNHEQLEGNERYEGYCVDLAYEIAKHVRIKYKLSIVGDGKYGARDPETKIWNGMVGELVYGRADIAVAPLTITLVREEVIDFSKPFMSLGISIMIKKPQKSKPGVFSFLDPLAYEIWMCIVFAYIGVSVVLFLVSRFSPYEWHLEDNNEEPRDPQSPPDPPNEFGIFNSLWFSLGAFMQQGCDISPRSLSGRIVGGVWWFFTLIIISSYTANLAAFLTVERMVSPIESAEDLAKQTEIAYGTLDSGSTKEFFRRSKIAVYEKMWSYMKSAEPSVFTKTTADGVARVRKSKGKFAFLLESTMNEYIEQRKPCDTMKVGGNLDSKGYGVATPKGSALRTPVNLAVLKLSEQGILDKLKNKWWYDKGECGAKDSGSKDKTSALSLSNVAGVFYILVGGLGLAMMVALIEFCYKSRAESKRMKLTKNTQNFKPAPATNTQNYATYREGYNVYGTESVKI

O=C(CCCCC1CCSS1)OCCCO (stereo not shown) [LA1, 1-Hydroxy-3-Lipo Ester]
Amplitude (glutamate + compound) [1]: 124±19.0 pA | A/AI (current with glutamate alone / current with glutamate + compound) [1]: 10.22±0.8 | IC50 ([1]; read-out: Log IC50 (converted)): 3.63 µM | t deact (weighted deactivation time constant) [1]: 10.4 ± 0.9 ms | t des (weighted desensitization time constant) [1]: 1.0 ± 0.06 ms | IC50 [1, 6]: 3.63 µM | Amplitude (glutamate + compound) [2]: 60±9.0 pA | A/AI (current with glutamate alone / current with glutamate + compound) [2]: 10.32±1.0 | IC50 ([2]; read-out: Log IC50 (converted)): 3.55 µM | t deact (weighted deactivation time constant) [2]: 10.1 ± 0.7 ms | t des (weighted desensitization time constant) [2]: 2.8 ± 0.3 ms | IC50 [2, 6]: 3.54 µM | Amplitude (glutamate + compound) [3]: 52±8.0 pA | A/AI (current with glutamate alone / current with glutamate + compound) [3]: 10.14±1.0 | IC50 ([3]; read-out: Log IC50 (converted)): 3.8 µM | t deact (weighted deactivation time constant) [3]: 10.1 ± 0.6 ms | t des (weighted desensitization time constant) [3]: 1.2 ± 0.09 ms | IC50 [3, 6]: 3.8 µM | decrease in the peak current of the AMPARs [4]: about 10 fold | increase of the rate of AMPA receptor deactivation (τw deact) [4]: about 4 fold | reduction in the rate of desensitization (τw des) [4]: 3–4 fold | IC50 [4]: 3.5 to 3.8 µM | Amplitude (glutamate + compound) [5]: 89±12.0 pA | A/AI (current with glutamate alone / current with glutamate + compound) [5]: 10.43±0.7 | IC50 ([5]; read-out: Log IC50 (converted)): 3.47 µM | t deact (weighted deactivation time constant) [5]: 9.5 ± 0.5 ms | t des (weighted desensitization time constant) [5]: 0.8 ± 0.1 ms | IC50 [5, 6]: 3.47 µM

O=C(CCCCC1CCSS1)OCCCO[N+](=O)[O-] (stereo not shown) [LA2, 1-Nitrooxy–propane-3-lipoyl ester]
Amplitude (glutamate + compound) [1]: 112±17.0 pA | A/AI (current with glutamate alone / current with glutamate + compound) [1]: 11.16±0.7 | IC50 ([1]; read-out: Log IC50 (converted)): 3.55 µM | t deact (weighted deactivation time constant) [1]: 10.9 ± 0.7 ms | t des (weighted desensitization time constant) [1]: 0.8 ± 0.08 ms | IC50 [1, 6]: 3.51 µM | Amplitude (glutamate + compound) [2]: 57±8.0 pA | A/AI (current with glutamate alone / current with glutamate + compound) [2]: 11.34±0.9 | IC50 ([2]; read-out: Log IC50 (converted)): 3.39 µM | t deact (weighted deactivation time constant) [2]: 11.1 ± 0.9 ms | t des (weighted desensitization time constant) [2]: 2.7 ± 0.2 ms | IC50 [2, 6]: 3.41 µM | Amplitude (glutamate + compound) [3]: 46±7.0 pA | A/AI (current with glutamate alone / current with glutamate + compound) [3]: 11.03±1.0 | IC50 ([3]; read-out: Log IC50 (converted)): 3.63 µM | t deact (weighted deactivation time constant) [3]: 10.8 ± 0.9 ms | t des (weighted desensitization time constant) [3]: 0.9 ± 0.09 ms | IC50 [3, 6]: 3.61 µM | decrease in the peak current of the AMPARs [4]: ~11 fold | increase of the rate of AMPA receptor deactivation (τw deact) [4]: approximately 5 fold | reduction in the rate of desensitization (τw des) [4]: 3–4 fold | IC50 [4]: ~3.5 µM | Amplitude (glutamate + compound) [5]: 79±11.0 pA | A/AI (current with glutamate alone / current with glutamate + compound) [5]: 11.53±0.8 | IC50 ([5]; read-out: Log IC50 (converted)): 3.39 µM | t deact (weighted deactivation time constant) [5]: 11.6 ± 0.7 ms | t des (weighted desensitization time constant) [5]: 0.6 ± 0.1 ms | IC50 [5, 6]: 3.35 µM

O=C(CCCCC1CCSS1)OCCCCCCO[N+](=O)[O-] (stereo not shown) [LA3, 1-Nitrooxy–Hexane-6-lipoyl ester]
Amplitude (glutamate + compound) [1]: 155±25 pA | A/AI (current with glutamate alone / current with glutamate + compound) [1]: 7.91±0.7 | IC50 ([1]; read-out: Log IC50 (converted)): 4.37 µM | t deact (weighted deactivation time constant) [1]: 7.7 ± 0.3 ms | t des (weighted desensitization time constant) [1]: 1.8 ± 0.04 ms | IC50 [1, 6]: 4.37 µM | Amplitude (glutamate + compound) [2]: 81±12.0 pA | A/AI (current with glutamate alone / current with glutamate + compound) [2]: 8.05±0.8 | IC50 ([2]; read-out: Log IC50 (converted)): 4.37 µM | t deact (weighted deactivation time constant) [2]: 7.9 ± 0.67 ms | t des (weighted desensitization time constant) [2]: 3.6 ± 0.2 ms | IC50 [2, 6]: 4.33 µM | Amplitude (glutamate + compound) [3]: 71±14.0 pA | A/AI (current with glutamate alone / current with glutamate + compound) [3]: 7.84±0.9 | IC50 ([3]; read-out: Log IC50 (converted)): 4.47 µM | t deact (weighted deactivation time constant) [3]: 7.6 ± 0.7 ms | t des (weighted desensitization time constant) [3]: 1.9 ± 0.1 ms | IC50 [3, 6]: 4.46 µM | decrease in the peak current of the AMPARs [4]: roughly 8 fold | increase of the rate of AMPA receptor deactivation (τw deact) [4]: roughly 3 fold | Amplitude (glutamate + compound) [5]: 114±12.0 pA | A/AI (current with glutamate alone / current with glutamate + compound) [5]: 8.13±0.6 | IC50 ([5]; read-out: Log IC50 (converted)): 3.63 µM | t deact (weighted deactivation time constant) [5]: 8.1 ± 0.4 ms | t des (weighted desensitization time constant) [5]: 1.7 ± 0.1 ms | IC50 [5, 6]: 3.59 µM
